Reference: patent publication EP0324328B1, “Use of the N-n-butyl derivative of desoxynojirimycin in the manufacture of a medicament inhibiting HIV-Virus” (priority 1987, dated 1989)
Where two headings read alike, the source gives them in different places.

Key:
[1] = target: T1, glucosidase I (Bos taurus, UniProt A0A3Q1M9D9); settings: reported by Schweden et al., Arch. Biochem. Biophys. 248(1), 335-340 (1986); cited from earlier work
T1 sequence (A0A3Q1M9D9 1-839): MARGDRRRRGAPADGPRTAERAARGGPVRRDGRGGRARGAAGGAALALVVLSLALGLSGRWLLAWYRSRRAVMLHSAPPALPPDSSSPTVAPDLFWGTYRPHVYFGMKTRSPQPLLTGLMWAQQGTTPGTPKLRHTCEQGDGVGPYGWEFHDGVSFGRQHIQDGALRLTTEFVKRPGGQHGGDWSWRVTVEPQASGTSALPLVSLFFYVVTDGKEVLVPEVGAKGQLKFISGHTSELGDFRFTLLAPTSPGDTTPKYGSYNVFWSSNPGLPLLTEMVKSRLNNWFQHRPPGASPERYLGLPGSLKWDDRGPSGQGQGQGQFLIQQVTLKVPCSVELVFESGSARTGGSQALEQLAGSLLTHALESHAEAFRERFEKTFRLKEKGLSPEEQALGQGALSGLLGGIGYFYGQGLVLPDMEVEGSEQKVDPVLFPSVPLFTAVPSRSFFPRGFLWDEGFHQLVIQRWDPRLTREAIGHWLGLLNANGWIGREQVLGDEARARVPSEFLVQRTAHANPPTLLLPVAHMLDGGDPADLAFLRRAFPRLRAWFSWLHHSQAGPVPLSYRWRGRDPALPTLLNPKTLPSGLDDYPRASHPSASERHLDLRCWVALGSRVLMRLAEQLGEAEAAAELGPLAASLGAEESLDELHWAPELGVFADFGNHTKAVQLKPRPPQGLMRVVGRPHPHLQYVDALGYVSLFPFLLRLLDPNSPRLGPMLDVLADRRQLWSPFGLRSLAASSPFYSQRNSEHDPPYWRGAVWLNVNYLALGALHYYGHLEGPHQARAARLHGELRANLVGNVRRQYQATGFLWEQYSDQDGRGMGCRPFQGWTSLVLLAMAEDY

[2] = system: T-45 cells; type: cell-based, human; settings: for Estimated Cell Growth Virus-uninfected Day 7: no-drug control 1.2x10^6; for cytotoxicity: non-infected cells, over the concentration range used (Fig. 3, Table 1), result in words
Protocol: FIG. 1 is a schematic outline of the test procedure used to assess the cytotoxic effect of test compounds on T-cells either infected or non-infected with HIV and in parallel the HIV inhibitory activity of the test compounds. TCID is the tissue culture infectious dose. Cells were cultured in RPMI-1640 medium with 10% fetal calf serum containing 100 units/ml penicillin G and 100 µg/ml streptomycin.
The assay was run in 96 well plastic microtiter plates in which 0.2 ml of culture medium containing 10^4 T-cells are seeded into each well. RPMI-1640 supplemented with 10% fetal calf serum was used as the culture medium. In each assay, 6 wells are used. Three (1-3) are infected with 10^4 TCID/well of HIV-1 or HIV-2 and to the other three (4-6) culture medium alone is added. Medium is changed at the same intervals for each test compound. The detailed assay procedure is illustrated in Figures 1 and 2.
The efficacy of the test compounds used in this example was assessed as follows: 0.2 ml of culture medium containing 10^4 T-45 cells were transferred into each well of a 96-well flat-bottomed tissue-culture plastic plate and the cells were allowed to settle at 37°C (see Figure 1). After 4 hours the media were aspirated and replaced with media which contained the test compound. Following overnight incubation the media was aspirated and 10^4 TCID of virus (HIV-1 or HIV-2) was added to each well. Incubation was continued at 37°C in 5% CO2 for 1 hour. Thereafter, growth media containing the various compounds were added and incubation at 37°C was continued. On the fourth day the cell suspensions from each well were split and seeded into two new wells and 0.2 ml of fresh media with compounds was added. This was repeated on the seventh day. Cells were examined by microscopy during days 1 to 10 for the presence of syncytia, growth rate and the appearance of the cytopathic effect (CPE) (giant cells, pycnotic nuclei, loss of refractility). CPE (100%) was defined as no round, refractile, uniform cells remaining; only giant, ballooned pyknotic cells were present. The viability of HIV infected cultures was determined by a rough count/estimate of cells which underwent CPE in relation to round refractile uniform (normal) cells in a given culture.
Quantitative data on the effect of the various compounds on the non-infected cells (cytotoxicity) was obtained by comparison of their growth rate to control cells not exposed to drugs (Table 1). […] In addition, the MOLT-4 cell line was also used.

[3] = system: HIV-1; assay: Time to develop CPE after transfer of HIV-1 infected cells to drug-free medium; type: cell-based
Protocol: FIG. 2 is a schematic outline of the test procedure used to determine the relative proportion of HIV-infected cells in cultures containing 0.1 mg/ml of the inhibitory test compound. At various times aliquots of the infected cell suspensions were transferred to inhibitor-free medium and the time taken for the cells to develop cytopathic effect (CPE) was recorded.
After 55 days of culture (O) in the presence of drug no virus appeared during 100 additional days of culture in the absence of drug (after removal of drug).
To determine if there was a gradual reduction of HIV-infected cells in cultures maintained with BuDNJ, aliquots of cells infected with 10^4 TCID of HIV-1 and grown in the presence of 0.1 mg/ml BuDNJ for varying lengths of time were transferred to separate wells and grown in drug-free medium as indicated in […]. The cultures were then monitored for development of CPE, indicative of active HIV replication. The times for the appearance of an advanced CPE were recorded. […]
In order to determine whether or not there was an actual reduction in HIV-infected cells in the presence of BuDNJ, aliquots of the infected cell suspension, grown for varying times in the presence or drug, where transferred to drug-free medium as outlined in Figure 2. The cultures were then monitored for the development of CPE and giant cell formation (indicative of active HIV replication). […]

Compound	glucosidase I inhibitory activity [1]	Estimated Cell Growth Virus-uninfected Day 7 ([2]; Dosage 0.01 mg/ml)	Estimated Cell Growth Virus-uninfected Day 7 ([2]; Dosage 0.05 mg/ml)	Estimated Cell Growth Virus-uninfected Day 7 ([2]; Dosage 0.10 mg/ml)	cytotoxicity [2]	days before CPE expression ([3]; 0.1 mg/ml drug for 55 days of culture, then culture in the absence of drug)	proportion of infected cells in the cultures ([3]; prolonged exposure, 0.1 mg/ml, result in words)	Estimated Cell Growth Virus-uninfected Day 7 ([2]; Dosage 0.25 mg/ml)	Estimated Cell Growth Virus-uninfected Day 7 ([2]; Dosage 0.50 mg/ml)
CCCCN1C[C@H](O)[C@@H](O)[C@H](O)[C@H]1CO [BuDNJ, N-n-butyl-deoxynojirimycin]	virtually identical	1.2x10^6	1.2x10^6	1.4x10^6	showed no cytotoxicity over the concentration range used	> 100 days	reduced the proportion of infected cells in the cultures	–	–
CN1C[C@H](O)[C@@H](O)[C@H](O)[C@H]1CO [MeDNJ, N-methyl-deoxynojirimycin]	virtually identical	1.2x10^6	1.2x10^6	1.0x10^6	cytotoxic	–	–	1.0x10^6	5.0x10^6
